In brackets after ≈: the same amount, converted by molar mass.
Key:
BS1 (harA::cat) = test: MIC by broth microdilution, B. subtilis JH642 harA disruption mutant; type: cell-based, Bacillus subtilis; conditions: for MIC: BS1 (harA::cat), disruption mutant, broth microdilution, duplicate; for susceptibility of strain JH642 expZ::CAT: B. subtilis harA::CAT insertion mutant
From the text: A B. subtilis strain expressing a harA::CAT insertion mutant was produced by single-crossover recombination using integrative plasmid pJPM1. Plasmid pJPM1 is a pSK^− derivative that carries the cat gene of S. aureus plasmid pC194 that confers chloramphenicol resistance in B. subtilis. […] However, if any DNA fragment providing a region of homology with the B. subtilis chromosome is inserted into this plasmid, it acquires the ability to transform B. subtilis competent cells to cat resistance at high frequency. The integration occurs via a Campbell-type (single crossover) recombination event that results in the duplication of the cloned region at either end of the vector. Reversal of the integration event leads to precise excision of the plasmid and restoration of gene structure on the chromosome. An internal fragment of the B. subtilis harA gene was excised using EcoRV and EcoRI and subcloned into compatible sites in pJPM1 creating plasmid pJPM1-expZ1. Plasmid pJPM1-expZ1 was used to transform the naturally competent B. subtilis strain JH642 (hygromycin-resistant) and transformants selected using chloramphenicol ([…]). A harA::CAT insertion mutant was confirmed by PCR and the strain was designated “JH642 expZ::CAT.” Strain JH642 expZ::CAT was hypersensitive to hygromycin analogues and other unrelated antibiotics including lankacidin and virginiamycin. Strain JH642 expZ::CAT was deposited with the ATCC on Sep. 26, 2000, and accorded Accession No. PTA-2480.
(§1) Quantitative assessment of resistance was performed by a broth microdilution method using cation-supplemented Mueller-Hinton broth containing antibiotics, the concentration of which varied in two-fold increments.
(§2) Preferably, the microdilution assay is performed using cation-adjusted Mueller-Hinton broth according to NCCLS (National Committee for Clinical Laboratory Standards) guideline M31 -A, Vol. 19, No. 11, “Performance standards for antimicrobial disk and dilution susceptibility tests for bacteria isolated from animals,” June 1999 (ISBN 1-56238-377-9), which is herein incorporated by reference.
(§3) To confirm the role of expZ in conferring resistance to hygromycin A analogues and other compounds, applicants examined the effect of B. subtilis and E. faecalis expZ expression and disruption on antibiotic resistance patterns. […] Also shown in Table 1 is the conferral of the “harA” phenotype on the normally drug-sensitive S. aureus RN4220 strain by transformation with a pMP plasmid containing B. subtilis harA.

S. aureus RN4220 ("SA1") = test: MIC by broth microdilution, wild-type sensitive S. aureus RN4220; type: cell-based, Staphylococcus aureus; conditions: duplicate
Experimental: as §1, §2, §3

EF1 (harA::erm) = test: MIC by broth microdilution, E. faecalis OG1X harA disruption mutant; type: cell-based, Enterococcus faecalis; conditions: for MIC: EF1 (harA::erm), disruption mutant, broth microdilution, duplicate; for decrease in the MIC when the harA gene is disrupted: E. faecalis OG1X; for susceptibility of strain OG1X harA::erm: E. faecalis harA::erm knockout strain
From the text: A PCR product corresponding to an internal segment of the E. faecalis harA gene was generated to obtain pVA891 -expZ by using the E. coli vector pVA891, which carries an ERM determinant that expresses in E. coli and E. faecalis. Briefly, internal harA primers were used (sense: 5′-[…]-3′-SEQ ID NO: 5); (antisense: 5′-[…]-3′-SEQ ID NO: 6) with E. faecalis genomic template DNA to generate a 665 bp PCR product. PCR-generated fragments were purified using the QIAquick PCR purification kit and cloned into the T-A cloning plasmid pGem-T Easy. The fragment was subsequently excised using EcoRI, gel purified using the S&S Elu-Quik kit, and cloned into the EcoRI site of pVA891. The ligation was transformed in E. coli DH5α with selection for erythromycin resistance (200 μg/mL); resulting in pVA891-expZ. The plasmid pVA891-expz was introduced by electroporation into E. faecalis OG1X (hygromycin resistant), where integrants occurring via homologous recombination were selected using erythromycin (20 μg/mL). The harA::erm knockout strain was confirmed by PCR and designated “OG1X harA::erm.” Strain OG1X harA::erm was hypersensitive to nonpolar hygromycin A analogues, lankacidin, virginiamycin and Synercid®. Revertants (i.e., resistant strains) could be obtained by growing for several generations in the absence of erythromycin and identified by screening for resistance to hygromycin A and sensitivity to erythromycin. Strain OG1X harA::erm was deposited with the ATCC on Sep. 26, 2000, and was accorded Accession No. PTA-2550.
as §1, §2, §3

SA1 (pMP20) = test: MIC by broth microdilution, S. aureus RN4220 with vector only (pMP20); type: cell-based, Staphylococcus aureus
Experimental: (§4) To identify genes whose products might be important in establishing the intrinsic level of resistance to hygromycins, applicants screened a recombinant library of B. subtilis chromosomal DNA segments cloned into the E. coli-S. aureus shuttle vector pMP20 for S. aureus transformants with increased levels of resistance to a hygromycin analogue, as follows:
(§5) Chromosomal DNA was extracted from a 100 mL culture of B. subtilis strain JH642 grown in L both, partially digested with Sau3A and fractionated by electrophoresis in a 1% agarose gel. A fraction corresponding in size to 2-4 kb was purified and used for ligation with pMP20 that had been digested with BamHI and dephosphorylated with alkaline phosphatase. Ligated DNA was used to transform E. coli DH5α by electroporation, with selection for ampicillin resistance. Transformant colonies were pooled; the plasmid DNA mixture was extracted and used to transform S. aureus RN4220 by electroporation with selection on plates containing erythromycin (2 μg/mL) and 2 μg/mL of a nonpolar hygromycin A analogue, 3-(4-((2S,4S,5R)-5-(3-(2,4-dichloro-phenoxy)-1-methyl)-(1E)-propenyl)-4-hydroxy-tetrahydro-furan-2-yloxy)-3-hydroxy-phenyl)-2-methyl-N-((3aS,4R,5R,6S,7R,7aR)-4,6,7-trihydroxy-hexahydro-benzo(1,3)dioxol-5-yl)-(2E)-acrylamide, which is Example 68 of WO 00/32616 and referred to herein as “Compound 1”.
(§6) Vector-transformed S. aureus cells were sensitive to this level of Compound 1. Plasmid segregation and backcross experiments confirmed that plasmids harboring DNA segments from the B. subtilis chromosome conferred hygromycin A resistance in S. aureus. The MIC for Compound 1 was increased in these strains from ≦0.2 μg/mL for pMP20 transformants to 50 μg/mL for cells transformed with the recombinant plasmids.
as §1, §2, §3

SA1 (pMP20 Bs_harA+) = test: MIC by broth microdilution, S. aureus RN4220 with vector carrying B. subtilis harA; type: cell-based, Staphylococcus aureus; conditions: for increase in the MIC: sensitive S. aureus strain compared to same strain transformed with and expressing harA
Experimental: as §4, §5, §6, §1, §2, §3

[1] = test system: E. faecalis OGX1 str gel ("EF1"); test: MIC by broth microdilution, wild-type resistant E. faecalis OG1X; type: cell-based, Enterococcus faecalis; conditions: duplicate
Experimental: as §1, §2, §3

[2] = test system: B. subtilis JH642 trpC2 pheA1 ("BS1"); test: MIC by broth microdilution, wild-type resistant B. subtilis JH642; type: cell-based, Bacillus subtilis; conditions: duplicate
Experimental: as §1, §2, §3

[3] = SA1 (pMP20), wild-type, sensitive + vector only, broth microdilution, duplicate
[4] = SA1 (pMP20 Bs_harA+), sensitive + vector with B. subtilis harA, broth microdilution, duplicate

Row | Compound | MIC (BS1 (harA::cat)) | MIC (S. aureus RN4220 ("SA1")) | MIC (EF1 (harA::erm)) | sensitivity of vector-transformed S. aureus cells on selection plates (SA1 (pMP20); 2 μg/mL of compound on plates) | MIC (SA1 (pMP20); S. aureus pMP20 transformants (library selection, text)) [µg/mL] | MIC (SA1 (pMP20); [3]) | MIC (SA1 (pMP20 Bs_harA+); S. aureus cells transformed with the recombinant plasmids carrying B. subtilis DNA segments) [µg/mL] | MIC (SA1 (pMP20 Bs_harA+); [4]) [µg/mL] | increase in the MIC (SA1 (pMP20 Bs_harA+)) | MIC [1] [µg/mL] | MIC [2] [µg/mL] | susceptibility of strain JH642 expZ::CAT (BS1 (harA::cat)) | decrease in the MIC when the harA gene is disrupted (EF1 (harA::erm)) | susceptibility of strain OG1X harA::erm (EF1 (harA::erm)) | decrease in the MIC when the harA gene is disrupted (BS1 (harA::cat); B. subtilis JH642)
1 | C/C(=C\c1ccc(O[C@H]2C[C@H](O)[C@@H](/C(C)=C/COc3ccc(Cl)cc3Cl)O2)c(O)c1)C(=O)N[C@@H]1[C@H](O)[C@@H](O)[C@H]2OCO[C@H]2[C@@H]1O [Compound 1] | ≦0.2 μg/mL | ≦0.2 μg/mL | ≦0.2 μg/mL | sensitive | ≤ 0.2 | ≦0.2 μg/mL | 50 | 100 | ~500 fold | 1.25 (≈ 1.87 µM) | 50 (≈ 74.8 µM) | – | – | – | –
2 | Lankacidin | 1.56 µg/mL | 3.13 µg/mL | 0.39 µg/mL | – | – | – | – | >100 | – | >100 | >100 | hypersensitive | greater than 100 fold | hypersensitive | –
3 | C/C(=C\c1ccc(O[C@@H]2O[C@H](/C(C)=N/OCc3cccc(Cl)c3)[C@@H](O)[C@@H]2O)c(O)c1)C(=O)N[C@@H]1[C@H](O)[C@@H](O)[C@H]2OCO[C@H]2[C@@H]1O [Compound 3, 5-deoxy-5-[[3-[4-[(6-deoxy-β-D-arabino-hexofuranos-5-ulos-1-yl)oxy]-3-hydroxyphenyl]-2-methyl-1-oxo-2-(E)-propenyl]amino]-1,2-O-methylene-D-neo-inositol, (E)-O-[(3-chlorophenyl)methyl]oxime] | 0.78 µg/mL | 0.39 µg/mL (≈ 0.599 µM) | ≦0.2 μg/mL | – | – | 0.39 µg/mL | – | >100 | – | 1.56 (≈ 2.4 µM) | >100 | – | – | – | –
4 | 5-deoxy-5[4-[(2,6-dideoxy-β-D-erythro-hexofuranos-5-ulos-1-yl)oxy]-3-hydroxyphenyl]-2-methyl-1-oxo-2-(E)-propenyl]amino]-1,2-O-methylene-D-neo-inositol, (E)-O-[(3-chlorophenyl)methyl]oxime [Compound 2] | 0.39 µg/mL | ≦0.2 μg/mL | ≦0.2 μg/mL | – | – | ≦0.2 μg/mL | – | 50 | – | 1.25 | 100 | – | greater than 4 fold | – | –
5 | CC1=C\[C@@H](O)CC(=O)Cc2nc(co2)C(=O)N2CCC=C2C(=O)O[C@H](C(C)C)[C@H](C)/C=C/C(=O)NC\C=C\1 [Virginiamycin A] | 0.78 µg/mL | 0.78 µg/mL (≈ 1.48 µM) | 1.56 µg/mL | – | – | 0.78 µg/mL | – | 50 | – | 25 (≈ 47.6 µM) | 25 (≈ 47.6 µM) | hypersensitive | – | hypersensitive | –
6 | CC(=O)[C@H]1O[C@@H](Oc2ccc(/C=C(\C)C(=O)N[C@@H]3[C@H](O)[C@@H](O)[C@H]4OCO[C@H]4[C@@H]3O)cc2O)[C@@H](O)[C@@H]1O [Hygromycin A] | 15.6 µg/mL | 31.3 µg/mL (≈ 61.2 µM) | 7.8 µg/mL | – | – | – | – | 250 | about 8 fold | 62.5 (≈ 122 µM) | 250 (≈ 489 µM) | – | – | – | about 16 fold

— patent US20030157491A1, “HarA polypeptides and nucleic acids, and related methods and uses thereof” (priority 2002, published 2003)
